From US11174298B2, “Preparation and use of ginsentides and ginsentide-like peptides” (priority 2016, dated 2021)

What was measured:
[1] = Heparin HPLC affinity column; type: binding
Description: Heparin-binding properties of ginsentides using heparin HPLC affinity column.

H9c2 cells = test: MTT cell viability of H9c2 cells, co-treatment with DOX; type: cell-based, rat
Method: To identify whether ginsentides can attenuate DOX-induced cardiotoxicity in cardiomyocytes, cell viability after drug treatment was measured by MTT assay.
After 24 h co-treatment of DOX with ginsentides, the viability of H9c2 cells was enhanced by ˜20% compared to the DOX-alone treatment (FIG. 43.).

[2] = test system: human endothelial cells (HUVEC-CS); test: Cellular NO synthesis in HUVEC-CS (DAF-2 DA staining); type: cell-based
isolated thoracic aorta = test: KCl-induced aortic ring contraction, isometric tension, ex vivo; design: species or system rat; conditions: thoracic aorta pre-contracted with KCl (30 mM)
α1-adrenergic receptor = test: Phenylephrine-induced aortic ring contraction, isometric tension, ex vivo; design: species or system rat; conditions: thoracic aorta pre-contracted with phenylephrine (0.1 μM)

Molecule | Retention in heparin HPLC affinity column [1] | Protective effects on cardiomyocytes during DOX-treatment (H9c2 cells) | Cellular NO release compared among ginsentides [2] | Relaxation of KCl-induced contracted aortic ring (isolated thoracic aorta) | Relaxation of phenylephrine-induced aortic ring contraction (α1-adrenergic receptor)
CKSGGSWCGFD-PHGCCG--NCGCLV--GFCYGTGC- [Ginsentide TP9] | retented in a heparin HPLC affinity column | – | – | – | –
CC(C)=CCC[C@](C)(O[C@@H]1O[C@H](CO)[C@@H](O)[C@H](O)[C@H]1O)[C@H]1CC[C@]2(C)[C@@H]1[C@H](O)C[C@@H]1[C@@]3(C)CC[C@H](O)C(C)(C)[C@@H]3[C@@H](O[C@@H]3O[C@H](CO)[C@@H](O)[C@H](O)[C@H]3O)C[C@]12C [ginsenoside Rg1] | – | did not showed any protective effects | – | – | –
CKSAGTWCGFD-PHGCCG--SCGCLV--GFCYGVSC- (CKSAGTWCGFDPHGCCGSCGCLVGFCYGVSC; Panax ginseng) [Ginsentide TP3] | retented in a heparin HPLC affinity column | – | comparable cellular NO release | not KCI-induced contracted aortic ring | relaxes phenylephrine-induced aortic ring contraction
CISSGGWCGFD-LHGCCG--NCGCLV--GFCYGTGC- (CISSGGWCGFDLHGCCGNCGCLVGFCYGTGC; listed as Panax quinquefolius) [Ginsentide TP8] | – | – | comparable cellular NO release | not KCI-induced contracted aortic ring | relaxes phenylephrine-induced aortic ring contraction
CC(C)=CCC[C@](C)(O[C@@H]1O[C@H](CO)[C@@H](O)[C@H](O)[C@H]1O)[C@H]1CC[C@]2(C)[C@@H]1[C@H](O)C[C@@H]1[C@@]3(C)CC[C@H](O)C(C)(C)[C@@H]3[C@@H](O[C@@H]3O[C@H](CO)[C@@H](O)[C@H](O)[C@H]3O[C@@H]3O[C@@H](C)[C@H](O)[C@@H](O)[C@H]3O)C[C@]12C [ginsenoside Re] | – | did not showed any protective effects | – | – | –
CC(C)=CCC[C@](C)(O[C@@H]1O[C@H](CO[C@@H]2O[C@H](CO)[C@@H](O)[C@H](O)[C@H]2O)[C@@H](O)[C@H](O)[C@H]1O)[C@H]1CC[C@]2(C)[C@@H]1[C@H](O)C[C@@H]1[C@@]3(C)CC[C@H](O[C@@H]4O[C@H](CO)[C@@H](O)[C@H](O)[C@H]4O[C@@H]4O[C@H](CO)[C@@H](O)[C@H](O)[C@H]4O)C(C)(C)[C@@H]3CC[C@]12C [ginsenoside Rb1] | – | did not showed any protective effects | – | – | –
